IC50 data for 60 molecules are collected here from ChEMBL document CHEMBL5052852, “Substituted hydantoinamides as adamts7 antagonists” (2021).

A short description of assay [1]: Inhibition of recombinant rat/human ADAMTS7 hybrid using HiLyteFluor-488 DELSSMVLELRGLRT-K(QXL520)-E-NH2 as substrate incubated for 120 mins and measured by FRET assay.
Assay [2] can be described thus: Inhibition of recombinant rat/human ADAMTS12 hybrid using HiLyteFluor-488 DELSSMVLELRGLRT-K(QXL520)-E-NH2 as substrate incubated for 120 mins and measured by FRET assay.

By IC50 is commonly meant the concentration at which inhibition is half-maximal.

With `CC(C)C1(CNC(=O)c2cnn(-c3ccc(Cl)c(F)c3)n2)NC(=O)NC1=O` (racemic), the IC50 in assay [1] was 13 nM; in assay [2] it was 2800 nM.

Consider `O=C1NC(=O)[C@](CNC(=O)c2cnn(-c3ccc(OC(F)(F)F)cc3)n2)(C2CC2)N1`, for which the IC50 was 190 nM in assay [1] and greater than 50000 nM in assay [2].

As for `O=C1NC(=O)C(CNC(=O)c2cnn(-c3ccc(F)cc3F)n2)(C2CCC2)N1` (stereo not given), the IC50 in assay [1] stood at 63 nM; in assay [2] it was 8500 nM.

On to `O=C1NC(=O)[C@](CNC(=O)c2cnn(-c3cccc(Cl)c3)n2)(C2CC2)N1`, for which the IC50 in assay [1] was determined as 21 nM; in assay [2], 450 nM.

As for `O=C1NC(=O)C(CNC(=O)c2cnn(-c3ccccc3)n2)(c2ccncc2)N1` (racemic), the IC50 in assay [1] stood at 20 nM; in assay [2], 2800 nM.

On to `Cc1scnc1C1(CNC(=O)c2cnn(-c3ccc(F)cc3)n2)NC(=O)NC1=O` (racemic), for which the values for the IC50 in assay [1] and in assay [2] were 8 nM and 680 nM, respectively.

Take `O=C1NC(=O)C(CNC(=O)c2cnn(-c3ccc(F)c(F)c3)n2)(C2CCC2)N1` (stereo not given): the IC50 in assay [1] came out at 6 nM; in assay [2] it was 890 nM.

In the case of `CC(C)C1(CNC(=O)c2cnn(-c3cccc(F)c3)n2)NC(=O)NC1=O` (racemic), the IC50 in assay [1] worked out at 46 nM; in assay [2], 4500 nM.

On to `O=C1NC(=O)C(CNC(=O)c2cnn(-c3ccccc3)n2)(C2CCCCC2)N1` (racemic), for which the results for the IC50 in assay [1] and in assay [2] were 145 nM and 50000 nM, respectively.

Consider `N#Cc1cccc(-n2ncc(C(=O)NCC3(C4CCC4)NC(=O)NC3=O)n2)c1` (stereo not given), for which the IC50 in assay [1] came to 78 nM; in assay [2], 4000 nM.

For the molecule `O=C1NC(=O)C(CNC(=O)c2cnn(-c3ccc(F)cc3)n2)(c2ccnn2C(F)F)N1` (single isomer, unassigned; atropisomer), the IC50 in assay [1] was determined as 18 nM; in assay [2], 1700 nM.

Consider `CCC1(CNC(=O)c2cnn(-c3ccc(F)cc3)n2)NC(=O)NC1=O` (racemic), for which the IC50 in assay [1] is 200 nM; in assay [2], 13000 nM.

For `O=C1NC(=O)C(CNC(=O)c2cnn(-c3ccc(F)cc3)n2)(c2ccnn2C(F)F)N1` (racemic), the IC50 in assay [1] came to 29 nM; in assay [2], 2400 nM.

For the molecule `CC(C)(C)C1(CNC(=O)c2cnn(-c3ccc(F)cc3)n2)NC(=O)NC1=O` (stereo in doubt), the IC50 was found to be 79 nM in assay [1] and 2200 nM in assay [2].

`CCCC1(CNC(=O)c2cnn(-c3ccccc3)n2)NC(=O)NC1=O` (racemic): the IC50 in assay [1] was 240 nM; in assay [2] it was 19000 nM.

Regarding `O=C1NC(=O)C(CNC(=O)c2cnn(-c3ccc(F)cc3)n2)(c2ccncc2)N1` (racemic), the values for the IC50 in assay [1] and in assay [2] were 140 nM and 2900 nM, respectively.

Take `O=C1NC(=O)[C@](CNC(=O)c2cnn(-c3ccc(F)cc3F)n2)(C2CC2)N1`: the IC50 came to 41 nM in assay [1] and 4250 nM in assay [2].

With `CC1(C)CC1C1(CNC(=O)c2cnn(-c3ccccc3)n2)NC(=O)NC1=O` (stereo in doubt; form 1), the IC50 in assay [1] worked out at 320 nM; in assay [2], 13000 nM.

Regarding `O=C1NC(=O)C(CNC(=O)c2cnn(-c3ccccc3)n2)(C2CCOCC2)N1` (racemic), the IC50 came out at 128 nM in assay [1] and 9950 nM in assay [2].

In the case of `CCCCC1(CNC(=O)c2cnn(-c3ccc(F)cc3)n2)NC(=O)NC1=O` (stereo in doubt), the results for the IC50 in assay [1] and in assay [2] were 48 nM and 3100 nM, respectively.

As for `CCCCC1(CNC(=O)c2cnn(-c3ccccc3)n2)NC(=O)NC1=O` (stereo in doubt), the results for the IC50 in assay [1] and in assay [2] were 191 nM and 19000 nM, respectively.

Consider `O=C1NC(=O)[C@](CNC(=O)c2cnn(-c3cc(F)ccc3F)n2)(C2CC2)N1`, for which the IC50 came out at 110 nM in assay [1] and 5500 nM in assay [2].

For the molecule `Cc1cccc(-n2ncc(C(=O)NC[C@@]3(C4CC4)NC(=O)NC3=O)n2)c1`, the values for the IC50 in assay [1] and in assay [2] were 170 nM and 2200 nM, respectively.

As to `O=C1NC(=O)C(CNC(=O)c2cnn(-c3ccc(F)cc3)n2)(C2CCCCC2)N1` (stereo not given), the values for the IC50 in assay [1] and in assay [2] were 14 nM and 4100 nM, respectively.

As to `O=C1NC(=O)C(CNC(=O)c2cnn(-c3ccc(F)cc3)n2)(c2cscn2)N1` (stereo not given), the results for the IC50 in assay [1] and in assay [2] were 12 nM and 2500 nM, respectively.

With `CC1(CNC(=O)c2cnn(-c3ccc(F)cc3)n2)NC(=O)NC1=O` (stereo in doubt), the 50% inhibitory concentration (IC50) was determined as 83 nM in assay [1] and 8900 nM in assay [2].

For the molecule `O=C1NC(=O)C(CNC(=O)c2cnn(-c3ccccc3)n2)(C2CCC2)N1` (stereo in doubt), the values for the IC50 in assay [1] and in assay [2] were 78 nM and 11000 nM, respectively.

For the molecule `CCC(C)C1(CNC(=O)c2cnn(-c3ccc(F)cc3)n2)NC(=O)NC1=O` (racemic), the IC50 in assay [1] worked out at 10 nM; in assay [2], 2200 nM.

Regarding `O=C1NC(=O)C(CNC(=O)c2cnn(-c3ccccc3)n2)(C2CCCOC2)N1` (stereo in doubt; form 1), the IC50 in assay [1] was 150 nM; in assay [2], 4000 nM.

For the molecule `O=C1NC(=O)C(CNC(=O)c2cnn(-c3ccc(F)cc3)n2)(c2ccnn2CC(F)(F)F)N1` (racemic), the IC50 in assay [1] was 50 nM; in assay [2], 3200 nM.

Consider `Cn1ccnc1C1(CNC(=O)c2cnn(-c3ccc(Cl)c(F)c3)n2)NC(=O)NC1=O` (stereo not given), for which the values for the IC50 in assay [1] and in assay [2] were 2 nM and 41 nM, respectively.

For `Cn1ccnc1C1(CNC(=O)c2cnn(-c3ccc(F)cc3)n2)NC(=O)NC1=O` (racemic), the values for the IC50 in assay [1] and in assay [2] were 4 nM and 320 nM, respectively.

Turning to `CC(C)(C)C1(CNC(=O)c2cnn(-c3ccc(C(F)(F)F)c(F)c3)n2)NC(=O)NC1=O` (racemic), the figures for the IC50 in assay [1] and in assay [2] were 210 nM and 50000 nM, respectively.

On to `Cc1ccc(-n2ncc(C(=O)NC[C@@]3(C4CC4)NC(=O)NC3=O)n2)cc1`, for which the IC50 in assay [1] was determined as 47 nM; in assay [2], 950 nM.

With `CCCC1(CNC(=O)c2cnn(-c3ccc(F)cc3)n2)NC(=O)NC1=O` (racemic), the IC50 in assay [1] came out at 170 nM; in assay [2] it was 19000 nM.

Turning to `O=C1NC(=O)[C@](CNC(=O)c2cnn(-c3ccc(F)cn3)n2)(C2CC2)N1`, the half-inhibitory concentration (IC50) was 140 nM in assay [1] and 4750 nM in assay [2].

Take `O=C1NC(=O)[C@](CNC(=O)c2cnn(-c3ccc(Cl)cc3Cl)n2)(C2CC2)N1`: the IC50 in assay [1] came to 130 nM; in assay [2] it was 7100 nM.

As for `CCCC1(CNC(=O)c2cnn(-c3ccc(F)cc3)n2)NC(=O)NC1=O` (stereo in doubt), the IC50 in assay [1] was 60 nM; in assay [2], 5100 nM.

On to `CC(C)C1(CNC(=O)c2cnn(-c3cccc(C#N)c3)n2)NC(=O)NC1=O` (stereo in doubt), for which the results for the IC50 in assay [1] and in assay [2] were 78 nM and 2600 nM, respectively.

Regarding `O=C1NC(=O)C(CNC(=O)c2cnn(-c3ccccc3)n2)(C2CCOC2)N1` (racemic), the IC50 in assay [1] amounted to 170 nM; in assay [2] it was 22000 nM.

With `O=C1NC(=O)[C@](CNC(=O)c2nnc(-c3ccc(F)cc3)o2)(C2CC2)N1`, the 50% inhibitory concentration (IC50) in assay [1] stood at 350 nM; in assay [2] it was 12000 nM.

In the case of `O=C1NC(=O)C(CNC(=O)c2cnn(-c3ccc(F)c(Cl)c3)n2)(C2CCC2)N1` (stereo not given), the IC50 in assay [1] amounted to 18 nM; in assay [2], 1800 nM.

For the molecule `O=C1NC(=O)[C@](CNC(=O)c2cnn(-c3ccc(Br)cc3)n2)(C2CC2)N1`, the figures for the IC50 in assay [1] and in assay [2] were 58 nM and 1400 nM, respectively.

Consider `O=C1NC(=O)C(CNC(=O)c2cnn(-c3cc(F)c(F)c(F)c3)n2)(C2CCC2)N1` (stereo not given), for which the figures for the IC50 in assay [1] and in assay [2] were 16 nM and 3100 nM, respectively.

Consider `O=C1NC(=O)[C@](CNC(=O)c2cnn(-c3ncc(F)cc3F)n2)(C2CC2)N1`, for which the figures for the IC50 in assay [1] and in assay [2] were 190 nM and 6200 nM, respectively.

In the case of `O=C1NC(=O)[C@](CNC(=O)c2cnn(-c3ncccc3F)n2)(C2CC2)N1`, the IC50 in assay [1] is 7 nM; in assay [2], 14000 nM.

With `CC(C)C1(CNC(=O)c2cnn(-c3ccc(F)c(Cl)c3)n2)NC(=O)NC1=O` (stereo not given), the results for the IC50 in assay [1] and in assay [2] were 190 nM and 12000 nM, respectively.

For `O=C1NC(=O)C(CNC(=O)c2cnn(-c3ccc(F)cc3)n2)(c2ccccn2)N1` (stereo in doubt; form 2), the IC50 in assay [1] came to 590 nM; in assay [2], 50000 nM.

For `O=C1NC(=O)[C@](CNC(=O)c2cnn(-c3cnsc3)n2)(C2CC2)N1`, the IC50 was 230 nM in assay [1] and 7400 nM in assay [2].

Turning to `O=C1NC(=O)C(CNC(=O)c2cnn(-c3ccc(F)cc3)n2)(C2CCC2)N1` (single isomer, unassigned), the IC50 in assay [1] is 24 nM; in assay [2], 4380 nM.

For `O=C1NC(=O)C(CNC(=O)c2cnn(-c3ccc(F)cc3)n2)(CC2CC2)N1` (stereo in doubt), the IC50 in assay [1] was found to be 130 nM; in assay [2], 6200 nM.

As for `O=C1NC(=O)C(CNC(=O)c2cnn(-c3ccccc3)n2)(C2CCCC2)N1` (racemic), the IC50 in assay [1] stood at 191 nM; in assay [2], 50000 nM.

Take `Cn1nccc1C1(CNC(=O)c2cnn(-c3ccc(F)cc3)n2)NC(=O)NC1=O` (racemic): the results for the IC50 in assay [1] and in assay [2] were 10 nM and 2400 nM, respectively.

`O=C1NC(=O)C(CNC(=O)c2cnn(-c3ccccc3)n2)(C2CCC2)N1` (racemic): the IC50 in assay [1] stood at 55 nM; in assay [2], 14000 nM.

Take `CCCCC1(CNC(=O)c2cnn(-c3ccccc3)n2)NC(=O)NC1=O` (racemic): the IC50 came out at 89 nM in assay [1] and 15000 nM in assay [2].

`CCn1nccc1C1(CNC(=O)c2cnn(-c3ccc(F)cc3)n2)NC(=O)NC1=O` (racemic): the IC50 in assay [1] came out at 14 nM; in assay [2] it was 2800 nM.

Take `O=C1NC(=O)[C@](CNC(=O)c2cnn(-c3ccc(Cl)cc3)n2)(C2CC2)N1`: the values for the IC50 in assay [1] and in assay [2] were 26 nM and 480 nM, respectively.

With `O=C1NC(=O)[C@](CNC(=O)c2cc(-c3cnn(CC4CC4)c3)no2)(C2CC2)N1`, the values for the IC50 in assay [1] and in assay [2] were 550 nM and 50000 nM, respectively.

Regarding `O=C1NC(=O)C(CNC(=O)c2cnn(-c3ccc(F)cc3)n2)(c2nccs2)N1` (racemic), the results for the IC50 in assay [1] and in assay [2] were 39 nM and 2400 nM, respectively.

As for `O=C1NC(=O)C(CNC(=O)c2cnn(-c3ccccc3)n2)(CC2CC2)N1` (racemic), the IC50 is 670 nM in assay [1] and 25000 nM in assay [2].
